# Legend:
# [1] = tested on: liver fatty acid binding protein; test: L-FABP mRNA (RT-PCR) and protein (Western blot) level in liver of bile duct ligated rats with clofibrate treatment; type: in vivo, rat; conditions: BDL rats, five day treatment with clofibrate, n=5
# Description: FIG. 5. […] Bile-duct ligation animal model time study: […] Histopathologic examination: […] The sense primer was [NT] […] ID NO: 2) (position at 407).
# bile duct ligated rats [2] = test: Lipid peroxidation (thiobarbituric acid-reactive substances) assay in bile duct ligated rats with clofibrate treatment; type: in vivo, rat; conditions: BDL rats, clofibrate 50 mg/100 g body weight/day by gavage for 5 days after 7 days BDL, mean ± standard error
# Description: Bile-duct ligation animal model time study: […] Histopathologic examination: […] The sense primer was [NT] […] ID NO: 2) (position at 407).
# bile duct ligated rats [3] = type: in vivo, rat; conditions: serum; BDL rats, clofibrate 50 mg/100 g body weight/day by gavage for 5 days after 7 days BDL; mean ± standard error
# [4] = In vitro antioxidative effect on free radicals released by the hydrophilic free radical generator AAPH; type: biochemical; conditions: mean±SD, n=6
# Procedure: FIG. 6 Effect of L-FABP on free radicals released by the hydrophilic free radical generator AAPH. L-FABP had as much effect on inactivating hydrophilic free radicals as 3.5 mM Vitamin C, while lysozyme and albumin had negligible effect, 96±1% and 97±1%, respectively (mean±SD, n=6).
# (§1) Our group has constructed and isolated recombinant L-FABP and used this protein in an in vitro model to study it's antioxidative properties.
# [5] = In vitro antioxidative effect on free radicals released by the lipophilic free radical generator AMVN; type: biochemical
# Procedure: FIG. 7 Effect of L-FABP on free radicals released by the lipophilic free radical generator AMVN. L-FABP had as much effect on inactivating lipophilic free radicals as 5 μM Vitamin E (mean±SD, n=6).
# as §1
compound,measurement,setting,value
CCOC(=O)C(C)(C)Oc1ccc(Cl)cc1 [Clofibrate],"liver fatty acid binding protein mRNA level, of the sham group",[1]; RT-PCR,74%
same,"liver fatty acid binding protein level, of the sham group",[1]; Western blot,79%
same,TBARS (liver),bile duct ligated rats [2]; liver,0.266 ± 0.053 nmol/mg protein
same,TBARS (serum),bile duct ligated rats [2]; serum,0.212 ± 0.032 nmol/ml serum
same,ATL,bile duct ligated rats [3],30.70 ± 3.26 U/L
same,Ammonia,bile duct ligated rats [3],205.7 ± 16.6 µmol/L
same,Total Bilirubin,bile duct ligated rats [3],4.87 ± 0.90 mg/dL
Lysozyme,effect on free radical inactivation (AAPH),[4],96±1%
Albumin,effect on free radical inactivation (AAPH),[4],97±1%
O=C1O[C@H]([C@@H](O)CO)C(O)=C1O [Vitamin C],antioxidant properties in the AMVN system,[5],no antioxidant properties
